According to ChEMBL document CHEMBL5058564, “EUbOPEN Chemogenomics Library 2 (Incucyte)” (2022):

Key:
Assay type in all cases: toxicity, cell-based
U2OS = experiment: Incucyte cell viability with U2OS; conditions: human, 10 µM, compound concentration 10 uM
HEK-293T = experiment: Incucyte cell viability with HEK293T; conditions: human, 10 µM, compound concentration 10 uM
Fibroblast = experiment: Incucyte cell viability with human fibroblast; conditions: 10 µM, compound concentration 10 uM
[1] = 0 h, replicate number 2, timepoint 0 hours
[2] = 6 h, replicate number 1, timepoint 6 hours
[3] = 6 h, replicate number 2, timepoint 6 hours
[4] = 12 h, replicate number 1, timepoint 12 hours
[5] = 12 h, replicate number 2, timepoint 12 hours
[6] = 18 h, replicate number 1, timepoint 18 hours
[7] = 18 h, replicate number 2, timepoint 18 hours
[8] = 24 h, replicate number 1, timepoint 24 hours
[9] = 24 h, replicate number 2, timepoint 24 hours
[10] = 0 h, replicate number 1, timepoint 0 hours
Note: unitless GR value; below 1 slowed growth and below 0 cell loss.

Compound	Growth Rate (U2OS; [1])	Growth Rate (U2OS; [2])	Growth Rate (U2OS; [3])	Growth Rate (U2OS; [4])	Growth Rate (U2OS; [5])	Growth Rate (U2OS; [6])	Growth Rate (U2OS; [7])	Growth Rate (U2OS; [8])	Growth Rate (HEK-293T; [2])	Growth Rate (HEK-293T; [4])	Growth Rate (HEK-293T; [5])	Growth Rate (HEK-293T; [6])	Growth Rate (Fibroblast; [1])	Growth Rate (Fibroblast; [2])	Growth Rate (Fibroblast; [3])	Growth Rate (Fibroblast; [4])	Growth Rate (Fibroblast; [5])	Growth Rate (U2OS; [9])	Growth Rate (HEK-293T; [10])	Growth Rate (U2OS; [10])	further results
CN1CCN(c2ccc(Nc3c4ccccc4nc4ccccc34)cc2)CC1.Cl.Cl.O	0.67	0.19	0.29	-0.09	-0.02	-0.2	-0.17	-0.28	-0.94	-0.78	-0.81	-0.62	0.35	-0.84	0.16	-0.56	0.17				Growth Rate (HEK-293T; [3]): -0.96; Growth Rate (HEK-293T; [7]): -0.61; Growth Rate (HEK-293T; [8]): -0.48; Growth Rate (HEK-293T; [9]): -0.52; Growth Rate (Fibroblast; [6]): -0.39; Growth Rate (Fibroblast; [7]): 0.08; Growth Rate (Fibroblast; [8]): -0.25; Growth Rate (Fibroblast; [9]): 0.11
CCCCC1=NC2(CCCC2)C(=O)N1Cc1ccc(-c2ccccc2-c2nnn[nH]2)cc1 [IRBESARTAN]	-1	0.3	0.94	0.97		0.72	0.95	0.87				0.86	0.58	-0.26	0.66	-0.32	0.98	0.92	0.8		Growth Rate (HEK-293T; [1]): 0.31; Growth Rate (HEK-293T; [8]): 0.68; Growth Rate (Fibroblast; [10]): 0.38; Growth Rate (Fibroblast; [6]): 0.01; Growth Rate (Fibroblast; [8]): 0.09
COc1cc(OC)cc(C(=O)NNC(=O)Nc2cccc3ccccc23)c1	-1	0.36		1	0.87	0.78	0.77	0.87				0.97		0.64		0.93		0.86	0.01	0.7	Growth Rate (HEK-293T; [1]): 0.45
CCCCCCNC(=O)Nc1ccc(S(=O)(=O)Nc2ccc(CCNC[C@H](O)COc3ccc(O)cc3)cc2)cc1 [L-755507]		0.25	0.75	0.32	0.7	0.87	0.79	0.87			0.94		0.79	0.91	-0.46		0.47	0.89	0.4		Growth Rate (HEK-293T; [3]): 0.53; Growth Rate (Fibroblast; [10]): 0.5
CCN(Cc1ccncc1)C(=O)C(CO)c1ccccc1 (stereo not given) [TROPICAMIDE]	0.44	0.58			0.99		0.92		0.92	0.97	0.95	0.93	-0.24						0.72	0.73	Growth Rate (HEK-293T; [7]): 0.83; Growth Rate (HEK-293T; [8]): 0.88; Growth Rate (HEK-293T; [9]): 1; Growth Rate (Fibroblast; [10]): 0.46
Cl.NCCc1ccc(O)c(O)c1 [DOPAMINE HYDROCHLORIDE]		0.57		0.79		0.8		0.95	0.72	0.97			0.55		0.26		0.67		0.96	0.15	Growth Rate (Fibroblast; [10]): 0.12; Growth Rate (Fibroblast; [7]): 0.95
CC(=O)O[C@H]1C(=O)[C@@]2(C)[C@H]([C@H](OC(=O)c3ccccc3)[C@]3(O)C[C@H](OC(=O)[C@H](O)[C@@H](NC(=O)c4ccccc4)c4ccccc4)C(C)=C1C3(C)C)[C@]1(OC(C)=O)CO[C@@H]1C[C@@H]2O [PACLITAXEL]	0.29	0.37	-0.14	0.12	-0.2	0.09	-0.14	0.07	-0.58	-0.24	-0.18	-0.17		-0.93	-0.73	-0.65	-0.32	-0.09		-0.24	Growth Rate (HEK-293T; [3]): -0.59; Growth Rate (HEK-293T; [7]): -0.18; Growth Rate (HEK-293T; [8]): -0.03; Growth Rate (HEK-293T; [9]): -0.1; Growth Rate (Fibroblast; [6]): -0.57; Growth Rate (Fibroblast; [7]): 0.02; Growth Rate (Fibroblast; [8]): -0.4; Growth Rate (Fibroblast; [9]): 0.16
CN1C[C@@H](NS(=O)(=O)N(C)C)C[C@@H]2c3cccc4c3c(cn4C)C[C@H]21.Cl [MESULERGINE HYDROCHLORIDE]			0.84			0.99					0.91				-0.13		0.81	0.99	0.52	0.87	Growth Rate (HEK-293T; [1]): 0.55
COc1ccc(S(=O)(=O)N2C(=O)[C@@](c3ccccc3OC)(N3C[C@H](O)C[C@H]3C(=O)N(C)C)c3cc(Cl)ccc32)c(OC)c1	-1	0.33				0.82	0.98							0.08	-0.04	0.09	0.24	0.9		0.6	Growth Rate (HEK-293T; [3]): 0.78; Growth Rate (Fibroblast; [6]): 0.36; Growth Rate (Fibroblast; [7]): 0.45; Growth Rate (Fibroblast; [8]): 0.43; Growth Rate (Fibroblast; [9]): 0.6
CN(CCN1CCC(OC(=O)Nc2ccccc2-c2ccccc2)CC1)C(=O)c1ccc(CN2CCC(C(N)=O)CC2)cc1 [REVEFENACIN]	0.11								0.97	0.95	0.59	0.98	0.62		0.71	0.73	0.65			0.88	Growth Rate (HEK-293T; [7]): 0.74; Growth Rate (HEK-293T; [8]): 0.9; Growth Rate (HEK-293T; [9]): 0.78; Growth Rate (Fibroblast; [6]): 0.65; Growth Rate (Fibroblast; [7]): 0.9; Growth Rate (Fibroblast; [8]): 0.56; Growth Rate (Fibroblast; [9]): 0.97
